Experimental data reported in patent publication US12344610B2, “APOL1 inhibitors and methods of use” (Maze Therapeutics, Inc., priority 2022, dated 2025).

Test system: human immortalized podocytes inducibly expressing APOL1 G2
Assay: APOL1 G2 podocyte cell rescue assay (Example B4)
Assay type: cell-based
Conditions: Homo sapiens, differentiated human podocytes, doxycycline-induced APOL1 G2, CellTiter-Glo; geometric mean of at least 2 runs; † = single run
Experimental: APOL1 G2 human immortalized podocyte viability assay for measurement of cytotoxicity reversal by compound (APOL1 G2 podocyte cell rescue assay).
Cell Handling. The hTERT-immortalized kidney podocyte cell line was procured from the laboratory of Dr. Moin Saleem at the University of Bristol, UK (Nephrology 17 (2012) 525-531; doi:10.1111/j.1440-1797.2012.01619.x; herein incorporated by reference in its entirety). Parental and engineered cell lines were cultured in RPMI 1640 media (Gibco, 11875093) with 10% Tet System Approved FBS (Takara, 631101). The engineered cell line was maintained under selection (2.5 μg/mL puromycin). Cell lines were maintained and engineered at 33° C. Cell cultures were transferred to 37° C. for 10 to 14 days to initiate differentiation (Nephrology 17 (2012) 525-531; doi:10.1111/j.1440-1797.2012.01619.x; herein incorporated by reference in its entirety). During this time, media was refreshed every 3 days. After differentiation, cells engineered to inducibly express APOL1 G2 were used in the podocyte cell rescue assay.
Cell Line Engineering. The APOL1 G2 coding sequence was cloned into the pLVX-TetOne-Puro vector and verified by sequencing (Genscript Biotech). This construct was designed to have a C-terminal HiBiT tag. Lentiviral packaging of the vector was conducted using the Lenti-X Packaging Single Shots (VSVG) system according to manufacturer instructions (Takara Bio, 631275). A stable cell line was generated by transfecting the parental podocyte cell line with the concentrated virus in media with 5 μg/mL polybrene (Sigma, TR-1003-G). Media was changed the following day. 72 hours post transfection, 2.5 μg/mL puromycin (Gibco, A1113803) was added to the cells and cells were maintained in selection media thereafter. This APOL1 G2 stable cellular pool was subjected to a stringent limiting dilution to generate a pure stable clone (Podocyte/pLVX-TetOne APOL1 G2/clone D10) capable of inducible expression of APOL1 G2.
Assay Setup. T175 flasks containing differentiated podocytes engineered to inducibly express APOL1 G2 (Podocyte/pLVX-TetOne APOL1 G2/clone D10) were washed once with 15 mL of DPBS (Thermo Fisher, 14190-144). These flasks were each trypsinized with 3 mL of prewarmed TrypLE Express (Gibco, 12605-010) and incubated at 37° C. with 5% CO2 until cells detached and neutralized with 7 mL of prewarmed assay media (RPMI 1640 media with 10% Tet System Approved FBS, no selection agent). Cells were pooled and the resulting suspension was gently mixed. The cell suspension was counted using a Countess Cell Counting Chamber (Invitrogen) and the cell concentration was adjusted to 240,000 cells/mL using assay media. Next, 25 μL of a 480 ng/mL working stock of doxycycline diluted in assay media was added to an assay ready plate. All experiments were performed in 384-well, white, solid bottom, tissue culture treated plates (Greiner, 781080). The assay ready compound plates were generated with duplicate 8-point compound dilution series that consisted of 3-fold stepwise dilutions (0.4% DMSO final). The plates were centrifuged at 1000 rpm for 1 minute. 25 μL of diluted cell suspension (final cell density=6,000 cells/well) was added to each well. The plates were centrifuged again at 1000 rpm for 1 minute and then incubated in a humidified incubator (37° C. with 5% CO2). After 95 hours, the assay plates were removed from the incubator and allowed to equilibrate to room temperature for 1 hour. CellTiter-Glo® reagent (Promega, G7570) was prepared according to the manufacturer's instructions. 25 μL of CellTiter-Glo® reagent was added to each well. Assay plates were sealed with foil and mixed for 5 minutes on an orbital shaker (500 rpm) to induce cell lysis. Plates were centrifuged at 1000 rpm for 1 minute. 10 minutes after CellTiter-Glo® reagent addition, an Envision plate reader (Perkin Elmer) was used to measure the luminescent signal of each assay plate. Collaborative Drug Discovery software was utilized for graphing data. […]

CN(c1c(F)cc(OCCN2CCC3(CC2)C(=O)Nc2ccc(Cl)cc23)cc1F)S(C)(=O)=O [Compound 127, N-[4-(2-{5-chloro-2-oxo-1,2-dihydrospiro[indole-3,4′-piperidin]-1′-yl}ethoxy)-2,6-difluorophenyl]-N-methylmethanesulfonamide]
EC50: 5.39 nM
